Data on 45 compounds can be found in US11286268B1, “EIF4E-inhibiting compounds and methods” (EFFECTOR THERAPEUTICS, INC., priority 2019, dated 2022).

Where two headings read alike, the source gives them in different places.

The test concerns the target recombinant eIF4E (Homo sapiens (Human), UniProt P06730). Kind of test: Fluorescence polarization competition assay for eIF4E binding potency. Put shortly: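 Competitive displacement format: compounds compete with a fluorescent m7GDP tracer (20 nM) for 75 nM recombinant eIF4E. Incubation is 30 min at room temperature, protected from light, with 1% DMSO. Polarization read gives IC50 over eight 3-fold concentrations.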
A general note: Polarisation of emitted light reports the rotation of a fluorescent probe.

The mark [1] stands for this setting: inhibition of eIF4E/EDA-m7GDP-ATTO-550 binding, calculated IC50 values, Table 4B, read-out: IC50.
Where [2] appears, read: fluorescence polarization competition, 75 nM recombinant eIF4E, 20 nM EDA-m7GDP-ATTO-550, IC50 class, read-out: elF4E FP.
[3] abbreviates: inhibition of eIF4E/EDA-m7GDP-ATTO-550 binding by 50%, Table 4B calculated values, read-out: IC50.

Chain of recombinant eIF4E (P06730 whole entry): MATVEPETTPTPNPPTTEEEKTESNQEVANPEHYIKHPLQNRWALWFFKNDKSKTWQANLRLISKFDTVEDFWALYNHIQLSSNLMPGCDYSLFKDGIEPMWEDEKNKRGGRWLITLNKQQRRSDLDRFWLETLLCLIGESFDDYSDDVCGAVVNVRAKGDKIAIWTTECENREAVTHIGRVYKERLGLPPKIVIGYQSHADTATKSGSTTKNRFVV

Regarding `CCN(c1ncc2nc(C)n(CC#Cc3ccc(Cl)cc3-c3ccnc4c(C(=O)NS(=O)(=O)CC(F)(F)F)csc34)c(=O)c2c1C#N)C1CCN(C2COC2)CC1` [compound 1734], the IC50 under setting [1] is 19.4 nM.

Take `Cc1nc2cnc(N(C)C3CCN(CCOC(F)(F)F)CC3)c(C#N)c2c(=O)n1CC#Cc1ccc(Cl)cc1-c1ccnc2c(C(=O)O)csc12` [compound 1170]: the IC50 is less than 50 nM under setting [2] and 17.1 nM under setting [3].

Turning to `Cc1nc2cc(C(F)(F)F)c(N3CCN(C)CC3)c(C#N)c2c(=O)n1CCOc1ccc(Cl)cc1-c1ccnc2c(Cl)csc12` [compound 1247], the IC50 reads like this: under setting [2], less than 50 nM; under setting [1], 35.5 nM. For the compound `N#Cc1ncc(CCOc2ccc(Cl)cc2-c2cccc(C(=O)O)c2)c2c(=O)[nH]c(NCC(F)(F)F)nc12` [compound 177], the IC50 under setting [2] is less than 50 nM and the IC50 under setting [3] is 26.8 nM. Turning to `Cc1cc(-c2cc(Cl)ccc2OCCn2c(C)nc3cc(C(F)(F)F)c(N4CCCCC4)c(C#N)c3c2=O)c2scc(C(=O)O)c2n1` [compound 423], the IC50 under setting [2] was less than 50 nM and the IC50 under setting [3] is 8.84 nM. On to `Cc1nc2cnc(N3CCN(CC(F)F)CC3)c(C#N)c2c(=O)n1CC#Cc1ccc(Cl)cc1-c1ccnc2c(C(=O)NS(C)(=O)=O)csc12` [compound 1487], for which the IC50 under setting [1] is 25.4 nM. For the compound `Cc1c(C(F)(F)F)cc(C#N)c2c(=O)n(CCOc3ccc(Cl)cc3-c3ccnc4c(C(=O)O)csc34)c(C)nc12` [compound 416], the IC50 under setting [2] was less than 50 nM and the IC50 under setting [3] was 23 nM. Regarding `Cc1cc(-c2cc(Cl)ccc2OCCn2c(C)nc3cnc(N4CC(OCC(F)F)C4)c(C#N)c3c2=O)c2scc(C(=O)O)c2n1` [compound 1043], the IC50 is less than 50 nM under setting [2] and 3.98 nM under setting [3]. In the same order, the values of `Cc1cc(-c2cc(Cl)ccc2OCCn2c(C)nc3cc(CNC(C)(C)C)c(OC(F)F)c(C#N)c3c2=O)c2scc(C(=O)O)c2n1` [compound 619] are less than 50 nM and 6.34 nM.

Take `Cc1cc(-c2cc(Cl)ccc2OCCn2c(C)nc3cc(C(F)(F)F)c(-c4ncccc4F)c(C#N)c3c2=O)c2scc(C(=O)O)c2n1` [compound 751]: the IC50 is 50 to 1000 nM under setting [2] and 69.8 nM under setting [3]. Regarding `Cc1nc2cnc(N(C)C3CCN(CC(C)(F)F)CC3)c(C#N)c2c(=O)n1CC#Cc1ccc(Cl)cc1-c1ccnc2c(C(N)=O)csc12` [compound 1596], the IC50 under setting [1] was 654 nM. The same measure, in the same setting: the same measure for `Cc1nc2cnc(N3CC4(C3)CN(C3CC3(C)C)C4)c(C#N)c2c(=O)n1CCOc1ccc(Cl)cc1-c1ccnc2c(C(=O)O)csc12` (stereo not drawn) [compound 1436]: 29.5 nM; for `Cc1nc2cnc(N(C)C3CCN(CC(F)(F)Cl)CC3)c(C#N)c2c(=O)n1CCOc1ccc(Cl)cc1-c1ccnc2c(C(=O)O)csc12` [compound 1441]: 29.8 nM. As to `Cc1cc(-c2cc(Cl)ccc2OCCn2c(C)nc3c(F)cc(C(F)F)c(C#N)c3c2=O)c2cccc(C(=O)O)c2n1` [compound 490], the IC50 under setting [2] was 50 to 1000 nM.

As to `CCN(c1ncc2nc(C)n(CCOc3ccc(Cl)cc3-c3ccnc4c(C(=O)O)csc34)c(=O)c2c1C#N)C1CCN(CC(F)F)CC1` [compound 1433], the IC50 under setting [1] was 27.4 nM. Take `Cc1nc2cnc(N3CCN(C4CC4(C)C)CC3)c(C#N)c2c(=O)n1CCOc1ccc(Cl)cc1-c1ccnc2c(C(=O)O)csc12` (stereo not drawn) [compound 1638]: the IC50 under setting [1] is 38.8 nM.

Consider `Cc1cc(-c2cc(Cl)ccc2OCCn2c(C)nc3cc(C(F)(F)F)c(C4CCOCC4)c(C#N)c3c2=O)c2scc(C(=O)O)c2n1` [compound 431], for which the IC50 runs as follows: under setting [2], 50 to 1000 nM; under setting [3], 226 nM. For `O=C(O)c1cccc(-c2cc(Cl)ccc2OCCc2cccc3nc[nH]c(=O)c23)c1` [compound 170], the IC50 under setting [2] fell in the range of 50 to 1000 nM and the IC50 under setting [3] was 845 nM. Consider `Cc1nc2cc(C(F)(F)F)cc(C#N)c2c(=O)n1CCOc1ccc(Cl)cc1-c1cncc2c(C(=O)O)csc12` [compound 319], for which the IC50 by setting is: under setting [2], 50 to 1000 nM; under setting [3], 53.5 nM.

In the case of `Cc1cc(-c2cc(Cl)ccc2OCCn2c(C)nc3cc(F)c(CN4CCN(C)CC4)c(C#N)c3c2=O)c2scc(C(=O)O)c2n1` [compound 366], the IC50 under setting [2] is less than 50 nM and the IC50 under setting [3] was 6.66 nM. In the case of `Cc1nc2cnc(N3CCN(C(C)(C)C(F)F)CC3)c(C#N)c2c(=O)n1CCOc1ccc(Cl)cc1-c1ccnc2c(C(=O)O)csc12` [compound 1309], under setting [1], the IC50 was 37.2 nM. Consider `Cc1cc(-c2cc(Cl)ccc2OCCn2c(C)nc3cc(C(F)(F)F)c(C(=O)N(C)C)c(C#N)c3c2=O)c2scc(C(=O)O)c2n1` [compound 789], for which the IC50 runs as follows: under setting [2], less than 50 nM; under setting [3], 8.96 nM. On to `CCc1cc(-c2cc(Cl)ccc2OCCn2c(C)nc3cnc(CC)c(C#N)c3c2=O)c2scc(C(=O)O)c2n1` [compound 1062], for which the IC50 under setting [2] was less than 50 nM and the IC50 under setting [3] is 6.63 nM. In the same order, the values of `Cc1nc2cnc(N3CC4(C3)CN(C3(CF)CC3)C4)c(C#N)c2c(=O)n1CCOc1ccc(Cl)cc1-c1ccnc2c(C(=O)O)csc12` [compound 825] are less than 50 nM and 14.3 nM.

Consider `Cc1nc2cnc(CC3CCN(CC(F)F)CC3)c(C#N)c2c(=O)n1CCOc1ccc(Cl)cc1-c1ccnc2c(C(=O)O)csc12` [compound 1484], for which the IC50 under setting [1] was 22.9 nM. As to `Cc1cc(-c2cc(Cl)ccc2OCCn2c(C)nc3cc(C(F)(F)F)c(-c4cccnc4)c(C#N)c3c2=O)c2scc(C(=O)O)c2n1` [compound 630], the IC50 under setting [2] was 50 to 1000 nM and the IC50 under setting [3] was 50.2 nM. Turning to `Cc1nc2cnc(N(C)C3CCN(C4CC(F)C4)CC3)c(C#N)c2c(=O)n1CC#Cc1ccc(Cl)cc1-c1ccnc2c(C(=O)O)csc12` (stereo not drawn) [compound 1181], the IC50 is less than 50 nM under setting [2] and 13.7 nM under setting [3]. Regarding `Cc1cc(-c2cc(Cl)ccc2OCCn2c(C)nc3cc(S(C)(=O)=O)c(N4CCN(C)CC4)cc3c2=O)c2scc(C(=O)O)c2n1` [compound 1209], the IC50 by setting is: under setting [2], 50 to 1000 nM; under setting [1], 98 nM. For `C=C1c2c(C#N)cc(C(F)(F)F)cc2N=C(C)N1CCOc1ccc(Cl)cc1-c1cc(CCO)nc2c(C(=O)O)csc12` [compound 595], the IC50 under setting [2] is less than 50 nM and the IC50 under setting [3] was 24.8 nM. With `Cc1nc2cc(C(F)(F)F)c(CN3[C@@H]4CC[C@H]3COC4)c(C#N)c2c(=O)n1CCOc1ccc(Cl)cc1-c1ccnc2c(C(=O)O)csc12` [compound 523], the IC50 is, setting by setting: under setting [2], less than 50 nM; under setting [3], 23.9 nM. In the case of `Cc1nc2c(OC(F)F)ccc(C#N)c2c(=O)n1CCOc1ccc(Cl)cc1-c1ccnc2c(C(=O)O)csc12` [compound 359], the IC50 was less than 50 nM under setting [2] and 48.9 nM under setting [3].

As for `COCc1cc(F)c2cc(C)n(CCOc3ccc(Cl)cc3-c3ccnc4c(C(=O)O)csc34)c(=O)c2c1C#N` [compound 533], the IC50 by setting is: under setting [2], 50 to 1000 nM; under setting [3], 62.7 nM. For the compound `Cc1cc(-c2cc(Cl)ccc2OCCn2c(C)nc3cc(C(F)(F)F)c(N4CCN(C)CC4)c(C#N)c3c2=O)cc(C)n1` [compound 835], the IC50 is less than 50 nM under setting [2] and 29.3 nM under setting [3].

Turning to `Cc1cnc(C)c(-c2nc3c(=O)n(CCOc4ccc(Cl)cc4-c4cc(C)nc5c(C(=O)O)csc45)c(C)nc3cc2C(F)(F)F)n1` [compound 1022], the IC50 is less than 50 nM under setting [2] and 42.4 nM under setting [3]. With `Cc1cc(-c2cc(Cl)ccc2OCCn2c(C)nc3c(-c4ccccc4)nc(N4CCC4)c(C#N)c3c2=O)c2scc(C(=O)O)c2n1` [compound 1008], the IC50 is less than 50 nM under setting [2] and 15.3 nM under setting [3].

Turning to `Cc1cc(-c2cc(Cl)ccc2OCCn2c(C)nc3c(C)ncc(C#N)c3c2=O)c2scc(C(O)(C(F)(F)F)C(F)(F)F)c2n1` [compound 749], the IC50 under setting [2] was more than 1000 nM and the IC50 under setting [3] is more than 100000 nM. On to `Cc1cc(-c2cc(Cl)ccc2OCCn2c(C)nc3cnc(N4CCN(C)CC4)c(C#N)c3c2=O)c2sc(C)c(C(=O)O)c2n1` [compound 1418], for which the IC50 under setting [1] is 9.1 nM. As to `Cc1cc(-c2cc(Cl)ccc2OCCn2c(C)nc3c(C)nc(-c4ccccc4F)c(C#N)c3c2=O)c2scc(C(=O)O)c2n1` [compound 476], the IC50 is less than 50 nM under setting [2] and 33.9 nM under setting [3].

Take `Cc1cc(-c2cc(Cl)ccc2OCCn2c(C)nc3cc(C(F)(F)F)c(-c4cc(C)nn4C)c(C#N)c3c2=O)c2scc(C(=O)O)c2n1` [compound 1028]: the IC50 under setting [2] is less than 50 nM and the IC50 under setting [3] is 6.14 nM. In the same order, the values of `Cc1cc(-c2cc(Cl)ccc2OCCn2c(C)nc3cc(C(F)(F)F)c(-c4ccn(C)n4)nc3c2=O)c2scc(C(=O)O)c2n1` [compound 787] are less than 50 nM and 10.9 nM.

Turning to `Cc1nc2c(N3CCNCC(F)(F)C3)ncc(C#N)c2c(=O)n1CCOc1ccc(Cl)cc1-c1ccnc2c(C(=O)O)csc12` [compound 837], the IC50 was less than 50 nM under setting [2] and 13.4 nM under setting [3]. For `Cc1nc2cc(C(F)(F)F)c(N3CCN(C)CC3)c(C#N)c2c(=O)n1CC#Cc1ccc(Cl)cc1-c1ccnc2c(C(=O)O)csc12` [compound 1212], the IC50 runs as follows: under setting [2], less than 50 nM; under setting [1], 44.2 nM. Regarding `Cc1nc2cnc(N(C)C3CCN(CC(F)(F)C4CC(F)(F)C4)CC3)c(C#N)c2c(=O)n1CC#Cc1ccc(Cl)cc1-c1ccnc2c(C(=O)O)csc12` [compound 1582], the IC50 under setting [1] is 19.2 nM. Take `Cc1nc2cnc(N(C)C3CCN(C4CC(F)(F)C4)CC3)c(C#N)c2c(=O)n1CC#Cc1ccc(Cl)cc1-c1ccnc2c(C(=O)NS(=O)(=O)c3ccncc3)csc12` [compound 1111]: the IC50 was less than 50 nM under setting [2] and 5.71 nM under setting [3].

With `Cc1cc(-c2cc(Cl)ccc2OCCn2c(C)nc3cc(C(F)(F)F)c(-c4cncc(C(F)(F)F)n4)c(C#N)c3c2=O)c2scc(C(=O)O)c2n1` [compound 1026], the IC50 is, setting by setting: under setting [2], less than 50 nM; under setting [3], 15.5 nM.
